Measurements published in patent US10213451B2, “Methods and compounds for modulating the secretion or expression of adhesion proteins or angiopoietins of cells” (PACIFIC ARROW LIMITED, priority 2004, dated 2019).

Tests used:
[1] = tested on: OVCA 433; test: MTT assay OVCA 433; type: cell-based; conditions: Homo sapiens, OVCA433; OVCA 433, Serous
Method: Majority of ovarian cancers arise from the surface epithelium of ovary, most of them belong to the histological subtypes of clear cell and serous carcinoma. We obtained 10 more human ovarian carcinoma cell-lines of these histological subtypes for these studies. The inhibition activity exerted by Xanifolia-Y was determined with MTT assay.

[2] = tested on: swelling of rats' feet induced by Carrageenin; test: Carrageenin-induced swollen feet model; type: in vivo, SD rats;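 note: percent increase in foot volume over pre-inflammation volume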
Method: SD rats, male, weighing 163±18 g were used in the experiment. The tested animals are allowed to acclimate for a week. The rats drink water freely. The rats were randomly divided into 5 groups: control, positive control and 3 test groups, and each group had 8 rats. The dose for 3 groups of rats are 10, 20 and 40 mg/kg. Indometacin for the positive control is 10 mg/kg and fed once after modeling. The dose of CMC-Na for the control group is the same as each test group and fed into the stomach once a day before modeling for 5 days. The tested drug was fed into the stomach 10 minutes before the animal modeling (1 mL/100 g). The volumes of right foot of each rat were measured 0.5, 1, 2 and 4 hours before and after modeling. The volumes of the right hind feet were measured at a different time, 10 minutes after inflammation induced by subcutaneous injection (with syringe needle 7) of 0.05 mL of the 1% of Carrageenin/normal saline mixture into the feet. The Rate of swelling of the feet was calculated, compared with the controls and subject to a student t-test. Rate of swelling (E) (%)=Ltn−Lt0/Lt0×100% • Ltn: volume of foot after the inflammation • Lt0: volume of foot before the inflammation

[3] = tested on: Fibronectin secretion from bladder carcinoma cells (HTB-9); test: Fibronectin secretion (Western blot), HTB-9 cells; type: cell-based, human; conditions: 10 ug/ml
[4] = tested on: Fibronectin cellular content in ES2 cells; test: Cellular contents of Fibronectin and beta-actin (Western blot); type: cell-based, human; conditions: 24 hours
Method: Cells: ES2 (human ovarian carcinoma cells) were grew in RPMI 1640 medium. 1.5 million cells were seeded in a T25 flask and grown for 24 hours before drug-treatment. Drug-treatment: Cells cultures were replaced with fresh RPMI medium containing either 2.5 ul of DMSO (as control) [D]; or 10 ug/ml (final concentration) of Xanifolia-Y3 [Y]. After 24 hours, aliquot of culture medium was taken out for Fibronectin determination (Western blot method). The attached cells were suspended in 1 ml of SDS sample buffer (cell-extract).
Western Blot: Spent culture medium (0.6 ml) was mixed with SDS sample buffer (0.2 ml), and the cell-extract was boiled for 3 minutes before loading to SDS gel. Samples (80 ul/lane) were applied to a 6%-10% SDS gel and electrophoresis was conducted with 100 volts for 2 hours. Protein was transferred to a nitrocellulose membrane electrophoretically (30 min at 100 volts). The nitrocellulose blot was blocked with 5% non-fat dry milk in PBS (1-2 hours). The blot was then incubated with the first antibodies (mouse anti-FN, specific to human FN, SIGMA F0916 and mouse anti-beta actin, SIGMA A5316) and second antibody (Anti-mouse IgG AP conjugated, Promega S3721). The immuno-bands were developed with BCIP/NBT color development system (Promega S3771). Determination of Western band intensity: The band-images of Western blot were captured with a digital camera (3-5 pictures were taken per gel) and the intensity of bands was determined using “Image J” software.
FN concentrations were normalized with the cellular beta-Actin concentrations. Fibronectin secreted into medium and inside Y-treated cells were determined and compare to controls (DMSO-treated cells).

[5] = tested on: Hey8A cells attached to flasks; test: Inhibition of cell adhesion to flasks, Hey8A; type: cell-based, human; conditions: 5 ug/ml, 5 hours
Method: (§1) Methods and Results. ES2 or Hey8A cells were plated in T25 flasks with medium containing 5 ug/ml of Xanifolia-Y. Cultures were incubated for 5 hours. Attached cells were removed from flasks by trypsinization and the amounts were counted. Compare to no drug controls, 86±4% of ES2 cells and 67±8% of Hey8A cells were found attached to flasks under this condition. At 5 ug/ml Xanifolia-Y, over 90% of unattached cells are alive as determined by the trypan Blue exclusion assay and by their ability to re-attach to flasks when plating in medium without Xanifolia-Y. However, with 10 ug/ml Xanifolia-Y, less than 40% of cells attached to flasks and many of them are dead cells.
as §1, with “Results:” for “Results.”

[6] = tested on: OVCAR3 cells; test: Apoptosis by flow cytometry of GFP-Annexin-V and propidium iodide; type: cell-based, human; conditions: 24 h after exposure
Method: Experiment of apoptosis of OVCAR3 cells after treatment with Xanifolia-Y was assessed with flow cytometry of GFP-Annexin-V and propidium iodide.

[7] = tested on: blood vessels in ES2 (human ovarian cancer) xenograft tumor; test: Genesis of blood vessel in xenograft tumor; type: in vivo, Athymic Nu/Nu mice; conditions: i.p. 2.5 mg/kg on days 10-15 and 18-22, H&E sections
Method: Method: Athymic Nu/Nu mice (5-6 weeks old) are divided into two groups (1 and 2) with 5 animals in each group. On day 0, all mice were transplanted intra-peritoneally with one million ES2 (human ovarian cancer) cells. Animals were randomly divided into two groups:
Group 2: Drug-treatment group. On days 10-15 and 18-22, animals received daily drug administration of Xanifolia-Y, by i.p. route at dosage of 2.5 mg/kg.
Animals with high tumor burden were euthanized and solid tumors were taken out from these mice (between 18-27 days). Tumor tissues fixed with formalin at room temperature. The fixed tissues were sectioned and stained with Haematoxylin and eosin (H&E). The red blood cells inside the micro blood vessels were identified under a microscope.

`C/C=C(/C)C(=O)O[C@H]1[C@H](OC(=O)/C(C)=C\C)[C@@]2(CO)C(CC1(C)C)C1=CCC3[C@@]4(C)CC[C@H](O[C@@H]5OC(C(=O)O)[C@@H](O)C(O[C@@H]6O[C@@H](CO)C(O)C6O)C5O[C@@H]5OC(CO)[C@H](O)C(O)C5O)C(C)(C)C4CC[C@@]3(C)[C@]1(C)[C@@H](O)[C@H]2O` (stereo partly drawn) [Xanifolia-Y, 3-O-[β-D-galactopyranosyl (1→2)]-α-L-arabinofuranosy (1→3)-β-D-glucuronopyranosyl-21,22-O-diangeloyl-3β, 15α, 16α, 21β, 22α, 28-hexahydroxyolean-12-ene] was tested, and the IC50 [1] was 8.8 µM, the “Swelling rate after administration (%)” value ([2]; 10 mg/kg, 0.5 hour) was 16.7% and the “Swelling rate after administration (%)” value ([2]; 10 mg/kg, 1 hour) was 18.5%. The “Swelling rate after administration (%)” value ([2]; 10 mg/kg, 2 hours) was 16.0%, the “Swelling rate after administration (%)” value ([2]; 10 mg/kg, 4 hours) was 10.5% and the “Swelling rate after administration (%)” value ([2]; 20 mg/kg, 0.5 hour) was 10.5%. For the same compound, the “Swelling rate after administration (%)” value ([2]; 20 mg/kg, 1 hour) was 13.6%, the “Swelling rate after administration (%)” value ([2]; 20 mg/kg, 2 hours) was 12.4% and the “Swelling rate after administration (%)” value ([2]; 20 mg/kg, 4 hours) was 8.5%. For the same compound, the “Swelling rate after administration (%)” value ([2]; 40 mg/kg, 0.5 hour) was 10.3%, the “Swelling rate after administration (%)” value ([2]; 40 mg/kg, 1 hour) was 12.6% and the “Swelling rate after administration (%)” value ([2]; 40 mg/kg, 2 hours) was 12.5%. For the same compound, the “Swelling rate after administration (%)” value ([2]; 40 mg/kg, 4 hours) was 6.5%, the “% inhibition of Fibronectin secretion” value [3] was “about 50%” and the “% inhibition of Fibronectin secretion” value ([3]; listed as Y3) was 51%. The inhibition at 10 µg/mL ([3]; Homo sapiens) was 50%, the cellular beta-actin content ([4]; 10 ug/ml) was “no change” and the “decrease of Fibronectin cellular content” value ([4]; 10 ug/ml) was 70%. The activity at 10 µg/mL ([4]; Homo sapiens, ES-2, 10 ug/ml, read-out: Fibronectin cellular content, % of control) was 30%, the “cells attached to flasks, compared to no drug controls” value [5] was 67±8% and the “form of cell death induced” value [6] was “apoptosis is a major form of cell death”. For the same compound, the “blood vessels in tumor sections” value [7] was “more blood vessels were observed in the control Group1 than those in the drug-treated Group 2” and the “blood vessels in tumor sections” value ([7]; listed as Xanifolia Y) was “More blood vessels were observed in the control Group 1 than those in the drug-treated Group 2”.
